21 molecules from patent US9931327B2, “Derivatives of 1-phenyl-2-pyridinyl alkyl alcohols as phosphodiesterase inhibitors” (Chiesi Farmaceutici S.p.A., priority 2011, dated 2018) can be followed below.

Where a name gives a salt, the structure may show the parent alone. Bounds are passed on as bounds.

The test system of one assay is LPS-induced TNF-α release in peripheral blood mononuclear cells (PBMCs). The assay can be described thus: In vitro determination of PDE4 inhibitory activity in the PBMCs assay (LPS-induced TNF-α release). In kind it is cell-based, human. Conditions: PBMC; human PBMCs, LPS 3 ng/ml, 18 hours, TNF-α by ELISA; read-out: PDE4 inhibition (IC50, 50% inhibition of LPS-induced TNF-α release). In outline:
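Cryopreserved human PBMCs (10^5 cells/well) pre-incubated 30 min with compound (10^−12 to 10^−6 M or 10^−3 to 10^−7 M), then stimulated with LPS 3 ng/ml for 18 h at 37 °C. TNF-α in medium by ELISA; IC50 as mean ± 95% confidence limits.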
For orientation: IC50 means the concentration that gives 50% inhibition. Consider `Cn1cnc(S(=O)(=O)N2CCS[C@H]2C(=O)O[C@@H](Cc2c(Cl)c[n+]([O-])cc2Cl)c2ccc(OC(F)F)c(OCC3CC3)c2)c1` [Compound 119, 3,5-dichloro-4-((S)-2-(3-(cyclopropylmethoxy)-4-(difluoromethoxy)phenyl)-2-((S)-3-(1-methyl-1H-imidazol-4-ylsulfonyl)thiazolidine-2-carbonyloxy)ethyl)pyridine 1-oxide], for which the IC50 is below 0.1 nM.
Regarding `N#Cc1ccc(S(=O)(=O)N2CCS[C@H]2C(=O)O[C@@H](Cc2c(Cl)c[n+]([O-])cc2Cl)c2ccc(OC(F)F)c(OCC3CC3)c2)cc1` [Compound 206, 3,5-dichloro-4-((S)-2-((S)-3-(4-cyanophenylsulfonyl)thiazolidine-2-carbonyloxy)-2-(3-(cyclopropylmethoxy)-4-(difluoromethoxy)phenyl)ethyl)pyridine 1-oxide], the IC50 was below 0.1 nM.
In the case of `Cc1noc2ncc(S(=O)(=O)N3CCC[C@H]3C(=O)O[C@@H](Cc3c(Cl)c[n+]([O-])cc3Cl)c3ccc(OC(F)F)c(OCC4CC4)c3)cc12` [Compound 251, 3,5-dichloro-4-((S)-2-(3-(cyclopropylmethoxy)-4-(difluoromethoxy)phenyl)-2-((S)-1-(3-methylisoxazolo[5,4-b]pyridin-5-ylsulfonyl)pyrrolidine-2-carbonyloxy)ethyl)pyridine 1-oxide], the IC50 was below 0.1 nM.
On to `O=C(O[C@@H](Cc1c(Cl)c[n+]([O-])cc1Cl)c1ccc(OC(F)F)c(OCC2CC2)c1)[C@@H]1SCCN1S(=O)(=O)c1ccc2c(c1)OCCO2` [Compound 201, 3,5-dichloro-4-((S)-2-(3-(cyclopropylmethoxy)-4-(difluoromethoxy)phenyl)-2-((S)-3-(2,3-dihydrobenzo[b][1,4]dioxin-6-ylsulfonyl)thiazolidine-2-carbonyloxy)ethyl)pyridine 1-oxide], for which the IC50 was 0.1 to 1 nM.
`O=C(CN1CCSC1C(=O)O[C@@H](Cc1c(Cl)c[n+]([O-])cc1Cl)c1ccc(OC(F)F)c(OCC2CC2)c1)c1cccs1` (stereo partly drawn) [Compound 144, 3,5-dichloro-4-((2S)-2-(3-(cyclopropylmethoxy)-4-(difluoromethoxy)phenyl)-2-(3-(2-oxo-2-(thiophen-2-yl)ethyl)thiazolidine-2-carbonyloxy)ethyl)pyridine 1-oxide]: the IC50 is 0.1 to 1 nM.
Take `CS(=O)(=O)N(CCN1CCOCC1)c1ccc(S(=O)(=O)N2CCSC2C(=O)O[C@@H](Cc2c(Cl)c[n+]([O-])cc2Cl)c2ccc(OC(F)F)c(OCC3CC3)c2)cc1` (stereo partly drawn) [Compound 143, 3,5-dichloro-4-((2S)-2-(3-(cyclopropylmethoxy)-4-(difluoromethoxy)phenyl)-2-(3-(4-(N-(2-morpholinoethyl)methylsulfonamido)phenylsulfonyl)thiazolidine-2-carbonyloxy)ethyl)pyridine 1-oxide formate]: the IC50 was in the range of 0.1 to 1 nM.
As to `CN1CCN(CCS(=O)(=O)N2CCS[C@H]2C(=O)O[C@@H](Cc2c(Cl)c[n+]([O-])cc2Cl)c2ccc(OC(F)F)c(OCC3CC3)c2)CC1` [Compound 288, 3,5-dichloro-4-((S)-2-(3-(cyclopropylmethoxy)-4-(difluoromethoxy)phenyl)-2-((S)-3-(2-(4-methylpiperazin-1-yl)ethylsulfonyl)thiazolidine-2-carbonyloxy)ethyl)pyridine 1-oxide], the IC50 fell in the range of 0.1 to 1 nM.
On to `CN(C)C(=O)c1cccc(S(=O)(=O)N2CCC[C@H]2C(=O)O[C@@H](Cc2c(Cl)c[n+]([O-])cc2Cl)c2ccc(OC(F)F)c(OCC3CC3)c2)c1` [Compound 54, 3,5-dichloro-4-((S)-2-(3-(cyclopropylmethoxy)-4-(difluoromethoxy)phenyl)-2-((S)-1-(3-(dimethylcarbamoyl)phenylsulfonyl)pyrrolidine-2-carbonyloxy)ethyl)pyridine 1-oxide], for which the IC50 is below 0.1 nM.
As for `COC(=O)c1ccc(S(=O)(=O)N2CCSC2C(=O)O[C@@H](Cc2c(Cl)c[n+]([O-])cc2Cl)c2ccc(OC(F)F)c(OCC3CC3)c2)s1` (stereo partly drawn) [Compound 87, 3,5-dichloro-4-((2S)-2-(3-(cyclopropylmethoxy)-4-(difluoromethoxy)phenyl)-2-(3-(5-(methoxycarbonyl)thiophen-2-ylsulfonyl)thiazolidine-2-carbonyloxy)ethyl)pyridine 1-oxide], the IC50 fell in the range of 0.1 to 1 nM.
In the case of `O=C(O[C@@H](Cc1c(Cl)c[n+]([O-])cc1Cl)c1ccc(OC(F)F)c(OCC2CC2)c1)[C@H]1CCCN1S(=O)(=O)c1ccccc1` [Compound 244, 3,5-dichloro-4-((S)-2-(3-(cyclopropylmethoxy)-4-(difluoromethoxy)phenyl)-2-((R)-1-(phenylsulfonyl)pyrrolidine-2-carbonyloxy)ethyl)pyridine 1-oxide], the IC50 fell in the range of 1 to 10 nM.
For the molecule `CS(=O)(=O)Nc1cc(C(=O)N2CCC[C@H]2C(=O)O[C@@H](Cc2c(Cl)c[n+]([O-])cc2Cl)c2ccc(OC(F)F)c(OCC3CC3)c2)ccc1OCC1CC1` [Compound 19, 3,5-dichloro-4-((S)-2-((S)-1-(4-(cyclopropylmethoxy)-3-(methylsulfonamido)benzoyl)pyrrolidine-2-carbonyloxy)-2-(3-(cyclopropylmethoxy)-4-(difluoromethoxy)phenyl)ethyl)pyridine 1-oxide], the IC50 lay within 1 to 10 nM.
The same measure, in the same setting: in the case of `NS(=O)(=O)c1cccc(S(=O)(=O)N2CCSC2C(=O)O[C@@H](Cc2c(Cl)c[n+]([O-])cc2Cl)c2ccc(OC(F)F)c(OCC3CC3)c2)c1` (stereo partly drawn) [Compound 59, 3,5-dichloro-4-((2S)-2-(3-(cyclopropylmethoxy)-4-(difluoromethoxy)phenyl)-2-(3-(3-sulfamoylphenylsulfonyl)thiazolidine-2-carbonyloxy)ethyl)pyridine 1-oxide] it was below 0.1 nM; in that of `O=C(O[C@@H](Cc1c(Cl)c[n+]([O-])cc1Cl)c1ccc(OC(F)F)c(OCC2CC2)c1)[C@@H]1SCCN1C(=O)c1ccc(CN2CCS(=O)(=O)CC2)cc1` [Compound 40, 3,5-dichloro-4-((S)-2-(3-(cyclopropylmethoxy)-4-(difluoromethoxy)phenyl)-2-((S)-3-(4-(1,1-dioxothiomorpholinomethyl)benzoyl)thiazolidine-2-carbonyloxy)ethyl)pyridine 1-oxide], 0.1 to 1 nM; in that of `O=C(O[C@@H](Cc1c(Cl)c[n+]([O-])cc1Cl)c1ccc(OC(F)F)c(OCC2CC2)c1)[C@@H]1SCCN1S(=O)(=O)c1cccc(CO)c1` [Compound 271, 3,5-dichloro-4-((S)-2-(3-(cyclopropylmethoxy)-4-(difluoromethoxy)phenyl)-2-((S)-3-(3-(hydroxymethyl)phenylsulfonyl)thiazolidine-2-carbonyloxy)ethyl)pyridine 1-oxide], below 0.1 nM.
With `CN(C)Cc1cccc(C(=O)N2CCSC2C(=O)O[C@@H](Cc2c(Cl)c[n+]([O-])cc2Cl)c2ccc(OC(F)F)c(OCC3CC3)c2)c1` (stereo partly drawn) [Compound 34, 3,5-dichloro-4-((2S)-2-(3-(cyclopropylmethoxy)-4-(difluoromethoxy)phenyl)-2-(3-(3-((dimethylamino)methyl)benzoyl)thiazolidine-2-carbonyloxy)ethyl)pyridine 1-oxide], the IC50 lay in the range of 0.1 to 1 nM.
Consider `COc1ccc(S(=O)(=O)N2CCSC2C(=O)O[C@@H](Cc2c(Cl)c[n+]([O-])cc2Cl)c2ccc(OC(F)F)c(OCC3CC3)c2)cc1C(=O)N1CCOCC1` (stereo partly drawn) [Compound 128, 3,5-dichloro-4-((2S)-2-(3-(cyclopropylmethoxy)-4-(difluoromethoxy)phenyl)-2-(3-(4-methoxy-3-(morpholine-4-carbonyl)phenylsulfonyl)thiazolidine-2-carbonyloxy)ethyl)pyridine 1-oxide], for which the IC50 was below 0.1 nM.
Consider `CN1CCN(C(=O)c2cccc(S(=O)(=O)N3CCSC3C(=O)O[C@@H](Cc3c(Cl)c[n+]([O-])cc3Cl)c3ccc(OC(F)F)c(OCC4CC4)c3)c2)CC1` (stereo partly drawn) [Compound 130, 3,5-dichloro-4-((2S)-2-(3-(cyclopropylmethoxy)-4-(difluoromethoxy)phenyl)-2-(3-(3-(4-methylpiperazine-1-carbonyl)phenylsulfonyl)thiazolidine-2-carbonyloxy)ethyl)pyridine 1-oxide], for which the IC50 is below 0.1 nM.
Turning to `CN(C)C(=O)c1cccc(CC(=O)N2CCS[C@H]2C(=O)O[C@@H](Cc2c(Cl)c[n+]([O-])cc2Cl)c2ccc(OC(F)F)c(OCC3CC3)c2)c1` [Compound 198, 3,5-dichloro-4-((S)-2-(3-(cyclopropylmethoxy)-4-(difluoro-methoxy)phenyl)-2-((S)-3-(2-(3-(dimethylcarbamoyl)phenyl)acetyl)-thiazolidine-2-carbonyloxy)ethyl)pyridine 1-oxide], the IC50 is 0.1 to 1 nM.
With `Nc1ccc(S(=O)(=O)N2CCOC(C(=O)O[C@@H](Cc3c(Cl)c[n+]([O-])cc3Cl)c3ccc(OC(F)F)c(OCC4CC4)c3)C2)cc1` (stereo partly drawn) [Compound 139, 4-((2S)-2-(4-(4-aminophenylsulfonyl)morpholine-2-carbonyloxy)-2-(3-(cyclopropylmethoxy)-4-(difluoromethoxy)phenyl)ethyl)-3,5-dichloropyridine 1-oxide], the IC50 is below 0.1 nM.
For `CN1CCN(C(=O)c2cccc(S(=O)(=O)N3CCS[C@H]3C(=O)O[C@@H](Cc3c(Cl)c[n+]([O-])cc3Cl)c3ccc(OC(F)F)c(OCC4CC4)c3)c2)CC1` [Compound 132, 3,5-dichloro-4-((S)-2-(3-(cyclopropylmethoxy)-4-(difluoromethoxy)phenyl)-2-((S)-3-(3-(4-methylpiperazine-1-carbonyl)phenylsulfonyl)thiazolidine-2-carbonyloxy)ethyl)pyridine 1-oxide], the IC50 was below 0.1 nM.

The same assay, now with this note: PBMC; human PBMCs, LPS 3 ng/ml, 18 hours; compounds of formula (II); read-out: PDE4 inhibition (IC50, 50% inhibition of LPS-induced TNF-α release).
Turning to `O=C(O[C@@H](Cc1c(Cl)c[n+]([O-])cc1Cl)c1ccc(OC(F)F)c(OCC2CC2)c1)[C@H]1NCCS1` [Compound 6, 3,5-dichloro-4-((S)-2-(3-(cyclopropylmethoxy)-4-(difluoromethoxy)phenyl)-2-((S)-thiazolidine-2-carbonyloxy)ethyl)pyridine 1-oxide hydrochloride], the IC50 was 0.1 to 1 nM.
